Laboratory results from patent US11377393B2, “Method and composition for improving plant growth” (DANSTAR FERMENT AG, priority 2016, dated 2022).

Tested on: triticale (var. Bellac)
Experiment: Effect of inactive yeast and/or yeast derivatives in combination with nitrogen sources on plant growth (pot test, dry weight of aerial parts)
Format: in vivo
Conditions: triticale seeds in 20 g soil, 30 days, nitrogen 15 kg/ha, applied liquid to soil, letters = significance groups (p<0,1 Dunnett)
Protocol: Seeds of triticale (var. Bellac) coated with insectide Gaucho 350 and fungicide Rédigo® (Bayer) were used in the study. The tested nitrogenous components were the following: urea and calcium nitrate.
Two seeds were grown in individual plastic pots or cells containing equal quantity of soil (20 g). The treatments T1 to T4, T6, T7, T9, T10 and T13 (see Table 1) were distributed randomly in lines, with each line comprising of all treatments. Treatments T1 to T4, T6, T7, T9, T10 and T13 were repeated seven times and the experiment was repeated twice over time.
The treatments T1 to T4, T6, T7, T9, T10 and T13 were applied, in a liquid form, directly in the soil surrounding the seeds. The treatments were mixed with sterile distilled water in a total 5 ml samples. For the negative control, 5 ml of sterile distilled water was added. Seeds were grown under controlled conditions for 30 days. Growth conditions were 18/15 C for 10/14 hours (day/night) and 70% RH. Growth measurements were taken by measuring length and dry weight of the aerial part of the plants.
The growth in weight of the plants (the dry weight of the aerial parts) for each treatment was compared by statistical analysis.

NC(N)=O [Treatment T3, Urea]
Dry weight gain average (Table 5, urea series): 0.153bc

O=[N+]([O-])[O-].O=[N+]([O-])[O-].[Ca+2] [Treatment T4, Calcium nitrate]
Dry weight gain average (Table 4, calcium nitrate series): 0.106b
